Measured values reported in patent publication US9376449B2, “Indole carboxamide derivative” (Astellas Pharma Inc., priority 2012, dated 2016).

What was measured:
[1] = test system: sleep steps of electroencephalogram; assay: Measurement test of electroencephalogram in rat (sleep-awake cycle); assay type: in vivo; details: for sleep action: rat electroencephalogram, 0.1, 1 and 10 mg/kg intraperitoneally; for change in the occupancy in the respective sleep steps of electroencephalogram: any of the doses 0.1, 1 and 10 mg/kg intraperitoneally
Protocol: Test Example 5 Measurement Test of Electroencephalogram in Rat
In order to accustom the animals to operations during the experiment, handling was carried out for about 1 minute for one example once a day from the next day of the animal acquisition to the day before the administration.
(2) Method for Preparing Electroencephalogram Electrode-Implanted Specimen
After the completion of a quarantine period, the animals showing no abnormal health condition were subjected to an electroencephalogram electrode chronic implantation surgery with reference to brain atlas of Pellegrino et al. Under anesthesia with pentobarbital sodium (45 mg/kg, i.p.), the rat was calibrated in a brain stereotaxic apparatus. In the frontal cortex, a monopolar silver ball electrode having a diameter of the tip of about 1 mm was placed on a hard film of the brain. Into the hippocampus, a laminated bipolar electrodes made of stainless steel was stuck. The reference electrode was screwed around the olfactory brain. Further, as for the electromyogram measurement, the lead wire was implanted in the both electrodes about 1 cm between the electrodes in the neck portion. The other end was exposed to the head portion subcutaneously. The electrodes and the lead wires were subjected to soldering with connector sockets and fixed to the skull with a dental resin or the like.
(3) Sorting and Grouping of Animals
It was confirmed that twenty five rat examples which had been subjected to an electroencephalogram electrode chronic implantation surgery were recovered from the invasion of the surgery, and stable electroencephalogram were obtained therefrom. The weights of the animals were measured after 6 days from the surgery using an electronic scale balance the day before the first administration, and twenty rats were chosen in the descending order and distributed to perform administration. The administration order for the test materials was determined by a stratified random allocation method using a random number function of a spreadsheet software Excel (Microsoft Corporation).
The rats were accommodated in a measurement cage under rat feeding and water supply on the morning of the day of administration, and accustomed to the measurement environment. After measuring the weight using an electronic scale balance, a lead wire and a connector socket were connected 30 minutes or more before the start of the electroencephalogram measurement, and the rat was accustomed in the measurement state under no anesthesia and no custody. The test compounds (solvent, 0.1 mg/kg, 1 mg/kg, and 10 mg/kg) were intraperitoneally administered to the rats and the electroencephalogram was measured continuously until 6 hours after the administration.
The frequency of brain wave were acquired by applying electrical signals of electroencephalogram and of electromyogram an electroencephalogram system and using an electroencephalogram frequency analysis program of a personal computer from the electroencephalograph system. In addition, the image signals of the electroencephalogram waveform were applied to an EEG video system and recorded on a DVD recorder. The behavior observation was carried out through a video camera at the same time as the electroencephalogram measurement and the images were also recorded with the DVD recorder.
(i) Spontaneous Electroencephalogram
The presence or absence of abnormality in the electroencephalogram waveform in up to 6 hours from immediately after the administration, to each animal, respectively, was observed.
The analysis of a sleep-awake cycle was visually carried out using a sleep stage display-supporting program based on the electroencephalogram waveforms acquired with an electroencephalogram frequency analysis program. […]

isolated urethra = assay: Isolated urethra contractile action; design: species or system rat; details: for activation at 1 µM: test compound at 1 μM, contractile response by 10 μM phenylephrine as 100%, SD female rat urethra, read-out: Isolated urethra contraction (%)
Protocol: Test Example 2 Isolated Urethra Contractile Action
(1) Evaluation Test on Urethra Contractile Action of Test Compound Using Isolated Urethra
The urethra was isolated from an SD female rat having a body weight of 100 to 500 g. The isolated urethra was incised longitudinally to give a rectangular strip specimen having a width of about 3 mm, which was suspended in the circular muscle direction in 10 mL of a tissue bath filled with a Krebs-Henseleit solution (pH 7.4). The Krebs-Henseleit solution was bubbled with 95% O2 and 5% CO2, and kept at 37° C. The resting tension was set to 0.5 g to record the isometric contraction. After the resting tension was stabilized, contraction was elicited by the addition of 10 μM phenylephrine. After washing and stabilizing, the test compound was added cumulatively to a final concentration of −12 to −5 log M to measure a contractile response. By taking the contractile response by 10 μM phenylephrine as 100%, the ratio of the contractile response in the concentration of the test compound at 1 μM was calculated.
Ex represents Example No. of the test compound.

urethral pressure = assay: Effect of test compound on urethral pressure in anesthetized rats; assay type: in vivo, rat; details: for Increment value in the urethra pressures (mmHg): 0.1 mg/kg intravenously, urethane-anesthetized SD female rats; for urethra pressure increasing action: dose of 0.1 mg/kg
Source text: Test Example 3 Test to Evaluate Effect of Test Compound on Urethral Pressure
It has been reported that an increase in the urethra pressure is useful for the treatment of urinary incontinence, particularly stress urinary incontinence (for example, Drugs, 64, 14, 1503-1516 (2004)). In order to confirm whether the compound of the present invention increases the urethra pressure and thus is useful for the treatment of urinary incontinence, particularly stress urinary incontinence, the following tests were carried out.
SD female rats were anesthetized with urethane and subjected to laparotomy. Then, the bladder apex was incised and a catheter was inserted from the bladder apex. Further, the catheter tip was ligated and fixed to be located in the proximal urethra portion. The catheter was connected to a pressure transducer and an infusion pump. Further, a catheter for administrating the compound was fitted into the femoral vein. Physiological saline was continuously infused into the urethra and the perfusion pressure in the urethra was measured. After the urethral pressure was stabilized, the test compound that had been dissolved in physiological saline, or physiological saline including 5% dimethylacetamide and 0.5% Cremophor was administered intravenously at 0.1 mg/kg, and a change in urethral pressures was measured.
Further, the results of administering an active metabolite of midodrine (ST-1059: purchased from CHEMIZON) (J. Urology, 118, 980-982 (1977)) which is an α1 adrenoceptor agonist and has an effect on stress urinary incontinence in rat doses (0.01 mg/kg) presumed to correspond to the clinical doses are referenced and shown in the Tables below. The increment value in the urethra pressures of ramelteon and the Example compounds of the present invention at the time of administration are shown in Table 4. Ex represents Example No. of the test compound.

Structure (SMILES)	sleep action [1]	change in the occupancy in the respective sleep steps of electroencephalogram ([1]; rat)	activation at 1 µM (isolated urethra) [%]	Increment value in the urethra pressures (mmHg) (urethral pressure)	urethra pressure increasing action (urethral pressure; in words)	occupancy of the sleep step of electroencephalogram ([1]; rat, 0.1 mg/kg intraperitoneally, up to 6 hours)	occupancy of the respective sleep step ([1]; rat, 1 mg/kg intraperitoneally, up to 6 hours)	urethra contractile action (isolated urethra; isolated rat urethra, in words)	increment value in the urethra pressures compared with ST-1059 (urethral pressure; 0.1 mg/kg i.v. versus ST-1059 0.01 mg/kg, in words)
CNC(=O)c1[nH]c2ccc(OC)cc2c1CCNC(=O)C(F)F [Ex 2, 3-{2-[(difluoroacetyl)amino]ethyl}-5-methoxy-N-methyl-1H-indole-2-carboxamide]	there was no sleep action	no change in the occupancy in the respective sleep steps of electroencephalogram could not be seen	167	10.6 ± 3.5	good urethra pressure increasing action				
CCC(=O)NCC[C@@H]1CCc2ccc3c(c21)CCO3 [Ramelteon, reference compound]	there is a sleep action		242	11.1 ± 1.7		tendency that the occupancy of the sleep step of electroencephalogram from a dose of 0.1 mg/kg increases	significantly increases	good urethra contractile action	equal to or more than that of ST-1059
CNC(=O)c1[nH]c2cc(F)c(OC)cc2c1CCNC(C)=O [Ex 17]	there was no sleep action	no change in the occupancy in the respective sleep steps of electroencephalogram could not be seen	132	9.0 ± 1.0	good urethra pressure increasing action				
